Reference: patent US8993007B2, “Preparation used for anti-tachyarrhythmia and its preparation method” (Heshengyuan of Chinese Medicine Research & Development …, priority 2012, dated 2015)
Values joined by “and” are separate entries in the source; they are usually repeats but may differ in a detail not shown here. Equal entries are not always repeated.

How the values were obtained:
CD mice = assay: CaCl2-induced arrhythmia, efficacy screening test; format: in vivo; settings: CaCl2 tail vein 45 min after duodenal administration, amiodarone 78 mg/kg, NO.1 18.2, NO.2 157.6, NO.3 9.1, NO.4 462, NO.5 139, NO.6 1.16 mg/kg, NO.7 1.3 g/kg; for Duration (of arrhythmia), single animals: animals 1-10; for Duration (of arrhythmia), Mean: mean of 10 animals
Method: 90 CD mice, male, weighing 28-30 g, Beijing Vital River Laboratory Animal Technology Co., license number Sea (Beijing) 2006-0009. […] Before administration each drug was prepared to the desired concentration with physiological saline, duodenal route of administration, the dose of 10 mL/kg. […] Observed ECG whether induced arrhythmia, recorded the duration of ventricular arrhythmia; and the results were statistically analyzed.

Wistar male rats = assay: MI areas after ligation of left anterior descending artery; format: in vivo; settings: Metoprolol 2.25 mg/kg, Shengsong Yangxin capsule 0.432 g/kg; intragastric 7 days
Method: (§1) The rats were fixed on their back on board and chloral hydrate (10 mg/kg) intraperitoneally administered. Between the rib 4 and 5 on the left side, an open was cut into pleural cavity and the pericardium was torn open, then the heart was extruded by light pressure to the thorax. Two mm beneath left auricle, a ligation was done on left anterior descending artery with surgical suture (USP 0) and the heart was put back to the thorax. The cut open was closed and stitched. Penicillin (up to 80,000 unit) was used for the incision to protect again infection.
Sixty-six rats models were randomly assigned to 6 groups, 11 for each. They were the model group, the Metoprolol group, the Shengsong Yangxin capsule group, the large-dose extract group, the moderate-dose extract group and the small-dose extract group.
1) The Metoprolol group. Due to the administration of β receptor inhibitor after myocardial infarction (MI), Metoprolol was administered initially at small dose of 12.5 mg, bid, that is, the dosage was 25×0.018×5=2.25 mg/kg. Metoprolol 67.5 mg was accurately weighed and evenly dissolved with 300 ml normal saline (0.9%). […]
The hearts of the rats were harvested 2 hours after the last treatments were administered and the residues of blood in the heart chambers were washed with normal saline. […] Armed with the MPIDS-500, two technicians measured the MI areas on both sides of the slices. […]

Na^+—K^+-ATPase = assay: Na+-K+-ATPase concentration in cardiac tissue homogenate of MI rats (assay kit); format: in vivo; settings: Metoprolol, Shengsong Yangxin capsule (doses per b188: 2.25 mg/kg, 0.432 g/kg), intragastric 7 days
Method: as §1, with “beneath the” for “beneath”
(§2) Forty-two rats models were randomly assigned to 6 groups, 7 for each. They were the model group, the Metoprolol group, the Shengsong Yangxin capsule group, the large-dose extract group, the moderate-dose extract group, the small-dose extract group. Added were a control group of 6 rats and sham operation group of 6 rats. Totally there were 8 groups.
(§3) 1.2.3 Medicines Doses and Preparation. See Section 1.2.3 in the Experiment Example 1.
(§4) Starting from the next day after model establishment, the medicines were all administered intragastrically to the relevant groups accordingly, while the model group and sham operation group were given normal saline. The treatment course lasted for 7 days. […]

Ca^2+-ATPase = assay: Ca2+-ATPase concentration in cardiac tissue homogenate of MI rats (assay kit); format: in vivo; settings: Metoprolol, Shengsong Yangxin capsule (doses per b188: 2.25 mg/kg, 0.432 g/kg), intragastric 7 days
Method: as §1, with “beneath the” for “beneath”
as §2, §3, §4

connexin 43 [1] = assay: Western Blot test of connexin 43 in MI areas; format: in vivo, rats; settings: Metoprolol, Shengsong Yangxin capsule, intragastric 7 days
Method: as §1, with “fixed the” for “fixed”, “(3.5%, […]” for “(10”
Eighty-four rats' models were randomly assigned to 6 groups, 14 for each. They were the model group, the Metoprolol group, the Shengsong Yangxin capsule group, the large-dose extract group, the moderate-dose extract group, the small-dose extract group. Two more groups added were the control group of 13 rats and sham operation group of 13 rats. Some rats were dead the next day before intragastrical administration: 1 in the sham operation group, model group, Metoprolol group, Shengsong Yangxin capsule group, large-dose extract group and moderate-dose extract group respectively and 2 in the small-dose extract group.
1.2.3 Medicines Doses and Preparation. See Section 1.2.3 in the Experiment Example 1. […]

connexin 43 [2] = assay: Immunohistochemical expression of connexin 43 in left ventricle; format: in vivo, rats; settings: immunohistochemistry; Metoprolol, Shengsong Yangxin capsule; intragastric 7 days
Method: (§5) Two primary antibodies were used in immunohistochemical test. The connexin 43 rabbit ploy-colonal antibody was supplied by CST, USA, Batch No. 08/2011 and phospho-connexin 43 (ser 368) rabbit ploy-colonal antibody was supplied by Santa Cruz, USA, Batch no. G2011. SP 2-step reagent kit for secondary antibody was supplied by Beijing Zhongshan Goldenspace Biotechnology Co. Ltd., Batch no. K116812C. Anhydrous ethyl alcohol was supplied by Beijing Chemical Works, 2500 ml/bottle, Batch no. 20110808.95% ethanol was supplied by Beijing Chemical Works, 2500 ml/bottle, Batch no. 20110808. Formalin solution was supplied by Xilong Chemical Corporation, 500 ml/bottle, Batch no. 1110082. Xylene solution was supplied by Beijing Chemical Works, 500 ml/bottle, Batch no. 20110808. Paraffin section (54-56° C.) was supplied by Beijing Beihuakangtai Reagents Co. Ltd., Batch no. 20110428. DAB reagent kit was supplied by Beijing ComWin Biotech Co. Ltd., Batch no. 03911H. Polylysine, strength 25 mg, was supplied by Shanghai Sigma-aldrich Trading Co. Ltd., Batch no. P1399. Microscopic cover glass (24×24 mm) and slide glass (model 7105) were supplied by Beijing Chuanganghuaxin Experimental Instrument Co. Ltd. Stainless steel pressure port, microwave oven, thermostatic waterbath, immunohistochemistry kit, antigen retrieval kit, and microscope. […]

[3] = tested on: phospho-connexin 43 (ser 368); assay: Immunohistochemical expression of phospho-connexin 43 in left ventricle; format: in vivo, rats; settings: immunohistochemistry; Metoprolol, Shengsong Yangxin capsule; intragastric 7 days
Method: as §5

SMILES | Duration (of arrhythmia), single animals (CD mice) | Duration (of arrhythmia), Mean (CD mice) [s] | MI area/total area of ventricular chamber (%) (Wistar male rats) | Concentrations of Na^+-k^+-ATPase (Na^+—K^+-ATPase) | The concentrations of Ca^2+-ATPase (Ca^2+-ATPase) | Gray degree of Connexin 43 (connexin 43 [1]) | IOD of connexin 43 (connexin 43 [2]) | expression Area of connexin 43 (connexin 43 [2]) | IOD values of phospho-connexin 43 [3] | expression Area of phospho-connexin 43 [3]
CCCCc1oc2ccccc2c1C(=O)c1cc(I)c(OCCN(CC)CC)c(I)c1 [amiodarone] | 60 s and 106 s and 76 s and 53 s and 104 s and 99 s and 0 s and 86 s and 88 s and 120 s | 79.2 |  |  |  |  |  |  |  | 
COc1cc2c(cc1OC)[C@@H]1Cc3ccc(OC)c(OC)c3CN1CC2 [Sample6, Tetrahydropalmatine] | 70 s (2×) and 79 s (2×) and 100 s and 47 s and 181 s and 104 s and 130 s and 80 s | 94.0 |  |  |  |  |  |  |  | 
COCCc1ccc(OCC(O)CNC(C)C)cc1 (stereo not drawn) [Metoprolol] |  |  | 19.0847 ± 2.819 | 10.1177 ± 0.167**ΔΔ U/ml | 17.5339 ± 0.2439**ΔΔ U/ml | 0.5443 ± 0.1523**ΔΔ | 4535.0243 ± 1743**ΔΔ | 17723.1800 ± 6672**ΔΔ | 2686.5321 ± 1725**ΔΔ | 13283.8000 ± 8070**ΔΔ
